Experimental data reported in article PMC10060354, “Discovery of a small molecule ligand of FRS2 that inhibits invasion and tumor growth” (Cellular Oncology, 2022).
Where two headings read alike, the source gives them in different places.

Tests used:
[1] = Cell viability (cytotoxicity, MTT) using HepG2; assay type: cell-based, human; conditions: human, HepG2 cells, 72 h, summary sheet, read-out: MTT (AC50) Conc at which 50% of maximum efficacy is reached
Outline: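 Compounds were tested at 8 concentrations in triplicate on HepG2 cells plated 24 h beforehand, with 72 h exposure in 1% DMSO medium. MTT was loaded 1 h before the end, solubilized in DMSO and read at 570 nm. Minimum effective concentration is the lowest concentration exceeding the significance level, given dose-response or two consecutive points above it.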

[2] = tested on: FRS2 (Y436) phosphorylation; assay: Immunoblotting, FRS2 phosphorylation; assay type: cell-based, human; conditions: RT-112 cells
Description: (§1) Cells were serum starved o.n. and 10 µM compound or 1 µM (BGJ398) were added 3 h before stimulation with 100 ng/ml bFGF for 15 min. Cells were lysed in RIPA buffer containing protease inhibitor cocktail and lysates resolved by SDS-PAGE. Membranes were probed with primary antibodies against phospho-FRS2, FRS2, phospho-ERK1/2, ERK1/2, pAKT, AKT and tubulin. Integrated density of immuno-reactive bands was quantified using Adobe Photoshop CS3. Integrated densities of phospho bands relative to non-phospho bands of same protein were calculated and plotted as fold-change relative to untreated control conditions. Compounds and BGJ398 were added in DMSO and corresponding DMSO concentrations were used in control samples.

[3] = tested on: ERK (pT202/Y204); assay: Immunoblotting, ERK phosphorylation; assay type: cell-based, human; conditions: DAOY, SW780, M059K, SKOV3, AGS, DMS114 and RT-112 cells; 10 µM compound or 1 µM BGJ398
Description: as §1

[4] = In vivo bioavailability / PK after 1 mg/kg IV or 10 mg/kg PO; parameters: species or system Male ICR mice
Description: In vivo bioavailability studies were performed by Pharmacology Discovery Services Taiwan, Ltd., (New Taipei City, Taiwan). Male ICR mice weighing 20—30 g were provided by BioLasco Taiwan (under Charles River Laboratories Licensee). Animals were acclimated for 3 days prior to use and were confirmed with good health. All animals were maintained in a hygienic environment with controlled temperature (20—24 °C), humidity (30%—70%) and 12 h light/dark cycles. Free access to sterilized standard lab diet [MFG (Oriental Yeast Co., Ltd., Japan)] and autoclaved tap water. A pharmacokinetic (PK) study was performed in male ICR mice following intravenous (IV) and oral (PO) administration of compound 7 and E12 and IV administration of the test compound 3.14. The three test compounds (7, E12 and 3.14) were formulated in 1% dimethyl sulfoxide (DMSO)/10% Solutol® HS-15/ phosphate buffered saline (PBS) at 0.2 mg/mL and 1 mg/mL for IV and PO administration, respectively. The dosing volumes were 5 ml/kg for IV and 10 ml/kg for PO. The dose was 1 mg/kg for IV and 10 mg/kg for PO routes.

[5] = tested on: Caco-2 cells; assay: CaCo-2 permeability (bi-directional); conditions: Direction A2B
Outline: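 Caco-2 monolayers (passage 40–60) cultured 20 days on Transwells, equilibrated 40 min in HBSS; compound dosed apically (A-B) or basolaterally (B-A) with 1% v/v DMSO and lucifer yellow integrity marker, in duplicate. LC–MS/MS quantification; Papp from permeation rate, C0 and monolayer area; efflux ratio = Papp(B-A)/Papp(A-B).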

[6] = male, ICR, mouse, plasma, 1 mg/kg, IV
[7] = male, ICR, mouse, plasma, 10 mg/kg, PO

SMILES: O=[N+]([O-])c1c(Cl)cc(O)c2c1C1C=CCC1C(c1ccc(Cl)cc1)N2 (stereo not drawn) [Compound 7]
- AC50 at 72 h [1]: 7.02 µM
- basal and bFGF-induced phosphorylation of FRS2Y436 (result in words) [2]: reduced basal and bFGF-induced phosphorylation
- basal and bFGF-induced phosphorylation of ERK (result in words) [3]: inhibited basal and bFGF-induced phosphorylation
- AUC Extr (%) ([4]; 1 mg/kg, IV): 1.2%
- AUC Extr (%) ([4]; 10 mg/kg, PO): 18.1%
- AUC/D ([4]; 10 mg/kg, PO): 407 kg·ng·h/mL/mg
- AUClast (H*ng/ml) ([4]; 10 mg/kg, PO): 3333 H*ng/ml
- AUC(0-t) ([4]; male, ICR, mouse, plasma, iv, 1 mg/kg, IV, read-out: AUClast): 393 ng·h/mL
- AUC(0-t) ([4]; male, ICR, mouse, plasma, iv, 1 mg/kg, mice, 1 mg/kg IV, read-out: AUClast after IV administration): 398 ng·h/mL
- AUC(0-t) ([4]; male, ICR, mouse, plasma, po, 10 mg/kg, mice, 10 mg/kg PO, read-out: AUClast after PO administration): 3330 ng·h/mL
- AUC(0-inf) [4, 6]: 398 ng·h/mL
- MRT [4, 6]: 0.29 h
- clearance [4, 6]: 42 mL/min/kg
- half-life [4, 6]: 1.14 h
- Vd ([4]; male, ICR, mouse, plasma, 1 mg/kg, IV, read-out: Vss): 0.7 L/kg
- AUC(0-inf) [4, 7]: 4070 ng·h/mL
- MRT [4, 7]: 4.71 h
- Tmax [4, 7]: 0.5 h
- bioavailability [4, 7]: 85%
- half-life [4, 7]: 3.83 h
- C0 ([4]; male, ICR, mouse, mice, 1 mg/kg IV, plasma, read-out: C0 after IV administration): 2870 ng/mL
- Cmax ([4]; male, ICR, mouse, mice, 10 mg/kg PO, plasma, read-out: Cmax (oral bioavailability) after PO administration): 1400 ng/mL
- CL1/2 after IV administration ([4]; mice, 1 mg/kg IV): 1.14 h
- CL1/2 after PO administration ([4]; mice, 10 mg/kg PO): 3.83 h

SMILES: COc1ncc(C(C)NC2CC(C)(C)NC(C)(C)C2)cc1Cl (stereo not drawn) [Compound 3.3]
- AC50 at 72 h [1]: > 100 µM

SMILES: O=[N+]([O-])c1c(Cl)cc(O)c2c1C1C=CCC1C(c1ccc(Cl)cc1Cl)N2 (stereo not drawn) [Compound 8]
- AC50 at 72 h [1]: 12.4 µM
- Comments: A2B permeation (result in words) [5]: Test compound not detectable in receiver compartments A2B.
